Where two headings read alike, the source gives them in different places.
How the values were obtained:
Abeta 1-x = experiment: In vivo inhibition of beta-secretase, brain Abeta 1-x in PDAPP mice; settings: young female PDAPP mice, three hours after dosing, vs vehicle
Excerpt: Several animal models, including mouse, guinea pig, dog, and monkey, may be used to screen for inhibition of beta-secretase activity in vivo following compound treatment. Animals used in this invention can be wild type, transgenic, or gene knockout animals. For example, the PDAPP mouse model, prepared as described in Games et al., Nature 373, 523-527 (1995), and other non-transgenic or gene knockout animals are useful to analyze in vivo inhibition of Abeta and sAPPbeta production in the presence of inhibitory compounds. Generally, 2 month old PDAPP mice, gene knockout mice or non-transgenic animals are administered compound formulated in vehicles, such as corn oil, beta-cyclodextran, phosphate buffers, PHARMASOLVE®, or other suitable vehicles via oral, subcutaneous, intra-venous, feeding, or other route of administration. One to twenty-four hours following the administration of compound, animals are sacrificed, and brains are removed for analysis of Abeta 1-x. “Abeta 1-x” as used herein refers to the sum of Abeta species that begin with residue 1 and end with a C-terminus greater than residue 28. This detects the majority of Abeta species and is often called “total Abeta”. Total Abeta peptides (Abeta 1-x) levels are measured by a sandwich ELISA, using monoclonal 266 as a capture antibody and biotinylated 3D6 as reporting antibody. (See May, et al., Journal of Neuroscience, 31, 16507-16516 (2011)).
For acute studies, compound or appropriate vehicle is administered and animals are sacrificed at about 3 hours after dosing. Brain tissue, is obtained from selected animals and analyzed for the presence of Abeta 1-x. After chronic dosing brain tissues of older APP transgenic animals may also be analyzed for the amount of beta-amyloid plaques following compound treatment.
For example, a 3, 10, and 30 mg/kg oral dose of Example 1, to young female PDAPP mice reduced Abeta 1-x peptide levels in brain hippocampus by 23% (non-significant), 43% (p<0.05), and 58% (p<0.01), respectively.

human BACE2 (1-460):Fc = target: T1, human BACE2 (1-460):Fc (Homo sapiens, UniProt Q9Y5Z0); experiment: BACE2 TMEM27 FRET assay; assay type: biochemical
T1 construct: made in house; host or cells: HEK293 (transient, secreted into conditioned media, Protein A purified)
T1 sequence (Q9Y5Z0 21-460): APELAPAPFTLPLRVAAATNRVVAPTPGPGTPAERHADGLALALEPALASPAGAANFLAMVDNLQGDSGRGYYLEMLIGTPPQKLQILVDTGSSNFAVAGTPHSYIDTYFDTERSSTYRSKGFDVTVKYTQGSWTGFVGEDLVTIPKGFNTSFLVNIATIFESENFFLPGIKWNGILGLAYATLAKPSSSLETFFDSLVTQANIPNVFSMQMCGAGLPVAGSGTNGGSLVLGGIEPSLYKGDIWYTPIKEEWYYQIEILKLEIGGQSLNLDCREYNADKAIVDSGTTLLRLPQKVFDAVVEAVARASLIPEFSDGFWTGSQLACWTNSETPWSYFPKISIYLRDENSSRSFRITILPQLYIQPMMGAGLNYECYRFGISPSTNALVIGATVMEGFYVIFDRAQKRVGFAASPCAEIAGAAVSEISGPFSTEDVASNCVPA
Method: (§1) To assess selectivity of BACE1 over BACE2, the test compound is evaluated in FRET-based enzymatic assays using specific substrates for BACE1 and BACE2 as described below. For in vitro enzymatic and cellular assays, the test compound is prepared in DMSO to make up a 10 mM stock solution. The stock solution is serially diluted in DMSO to obtain a ten-point dilution curve with final compound concentrations ranging from 10 μM to 0.05 nM in a 96-well round-bottom plate before conducting the in vitro enzymatic and whole cell assays.
Human BACE1 (accession number: AF190725) and human BACE2 (accession number: AF 204944) are cloned from total brain cDNA by RT-PCR. […]
Conditioned media of HEK293 cell transiently transfected with huBACE1:Fc or huBACE2:Fc cDNA are collected. […] The purity of final product is assessed by electrophoresis in 4-20% Tris-Glycine SDS-PAGE. […]
Transmembrane protein 27 (TMEM27) (Accession Number NM_020665), also known as Collectrin) is a recently described substrate for BACE2, but not BACE1 (Esterhazy, et al, Cell Metabolism, 14, 365-377 (2011)). […] The RFU of the mixture at time 0 is recorded at excitation wavelength 430 nm and emission wavelength 535 nm. […] The RFU at the end of incubation is recorded with the same excitation and emission settings used at time 0. […]

[1] = tested on: BACE1 activity in SH-SY5YAPP695Wt cells; experiment: SH-SY5YAPP695Wt whole cell assay (Abeta 1-40 / 1-42 ELISA); assay type: cell-based; settings: Homo sapiens, Mean ± SEM, n = 4, 24 hours incubation
Method: as §1
The routine whole cell assay for the measurement of inhibition of BACE1 activity utilizes the human neuroblastoma cell line SH-SY5Y (ATCC Accession No. CRL2266) stably expressing a human APP695Wt cDNA. Cells are routinely used up to passage number 6 and then discarded.
SH-SY5YAPP695Wt cells are plated in 96 well tissue culture plates at 5.0×10^4 cells/well in 200 μL culture media (50% MEM/EBSS and Ham's F12, 1× each sodium pyruvate, non-essential amino acids and Na bicarbonate containing 10% FBS). The following day, media is removed from the cells, fresh media added then incubated at 37° C. for 24 hours in the presence/absence of test compound at the desired concentration range.
At the end of the incubation, conditioned media are analyzed for evidence of beta-secretase activity by analysis of Abeta peptides 1-40 and 1-42 by specific sandwich ELISAs. […]

CC(F)(F)[C@H]1OC[C@]2(c3cc(NC(=O)c4cnc(-n5cncn5)cn4)ccc3F)N=C(N)SC[C@H]12 [Example 1, N-[3-[(4aS,5S,7aS)-2-Amino-5-(1,1-difluoroethyl)-4,4a,5,7-tetrahydrofuro[3,4-d][1,3]thiazin-7a-yl]-4-fluoro-phenyl]-5-(1,2,4-triazol-1-yl)pyrazine-2-carboxamide]
reduction of Abeta 1-x peptide levels in brain hippocampus (Abeta 1-x; 3 mg/kg oral, non-significant): 23% | reduction of Abeta 1-x levels in brain cortical tissue (Abeta 1-x; 3 mg/kg oral, p<0.01): 43% | reduction of Abeta 1-x levels in brain cortical tissue (Abeta 1-x; 10 mg/kg oral, p<0.01): 59% | reduction of Abeta 1-x peptide levels in brain hippocampus (Abeta 1-x; 10 mg/kg oral, p<0.05): 43% | reduction of Abeta 1-x levels in brain cortical tissue (Abeta 1-x; 30 mg/kg oral, p<0.01): 73% | reduction of Abeta 1-x peptide levels in brain hippocampus (Abeta 1-x; 30 mg/kg oral, p<0.01): 58% | BACE2 IC50 / BACE1 IC50 ratio (fold selectivity for BACE1 over BACE2) (human BACE2 (1-460):Fc): about 400 fold | IC50 ([1]; read-out: SH-SY5YAPP695Wt A-beta (1-40) ELISA IC50): 0.385 ± 0.163 nM | IC50 ([1]; read-out: SH-SY5YAPP695Wt A-beta (1-42) ELISA IC50): 0.381 ± 0.266 nM
